Active and inactive are the calls of the source. The calls are words filed in the database; no cut-off is given here.

The target of test [1] is T1, Tyrosinase (Mus musculus, UniProt P11344).
T1 sequence (P11344 whole entry): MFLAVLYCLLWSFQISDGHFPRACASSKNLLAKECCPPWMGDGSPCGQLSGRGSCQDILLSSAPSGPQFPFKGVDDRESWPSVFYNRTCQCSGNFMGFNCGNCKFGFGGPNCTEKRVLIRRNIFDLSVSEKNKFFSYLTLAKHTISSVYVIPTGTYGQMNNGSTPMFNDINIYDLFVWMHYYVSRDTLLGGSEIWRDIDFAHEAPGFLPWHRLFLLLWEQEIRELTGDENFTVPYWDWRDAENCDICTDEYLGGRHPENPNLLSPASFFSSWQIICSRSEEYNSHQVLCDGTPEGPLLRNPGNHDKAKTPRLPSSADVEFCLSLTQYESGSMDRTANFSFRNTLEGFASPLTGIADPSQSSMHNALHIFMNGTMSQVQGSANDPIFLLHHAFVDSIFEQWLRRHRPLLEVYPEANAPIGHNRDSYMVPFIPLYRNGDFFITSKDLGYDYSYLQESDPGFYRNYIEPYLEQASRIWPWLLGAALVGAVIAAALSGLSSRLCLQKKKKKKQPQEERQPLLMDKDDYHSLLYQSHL
Description: Inhibition of tyrosinase in mouse Melan-a cells assessed as decrease in L-DOPA Vmax at 120 uM by Lineweaver-Burk plot. The format is cell-based.

Test [2] has as its target T2, Tyrosinase (Mus musculus) (UniProt P11344).
T2 sequence (whole entry): T1 sequence (P11344 whole entry)
Nature of the test: Inhibition of tyrosinase in mouse Melan-a cells assessed as decrease in L-DOPA Vmax by Lineweaver-Burk plot. The format is cell-based.

For test [3], the target named is T1, Tyrosinase. Nature of the test: Inhibition of tyrosinase in mouse Melan-a cells assessed as decrease in L-DOPA Vmax at 240 uM by Lineweaver-Burk plot. The format is cell-based.
In test [4] the target is T2, Tyrosinase (Mus musculus). Description: Inhibition of tyrosinase in mouse Melan-a cells after 3 days by L-DOPA oxidation assay in presence of 20 nM TPA melanogenesis inducer. The format is cell-based.
The target of test [5] is T2, Tyrosinase (Mus musculus). Nature of the test: Inhibition of tyrosinase in mouse Melan-a cells after 3 days by L-DOPA oxidation assay in presence of 1 uM forskolin melanogenesis inducer. The format is cell-based.
Test [6] addresses T2, Tyrosinase (Mus musculus). Description: Inhibition of tyrosinase in mouse Melan-a at 60 uM after 3 days by L-DOPA oxidation assay in presence of 1 uM forskolin melanogenesis inducer (reference value: 162%). Further details: scale not given: the % may be the effect or the level left.
Test [7] deals with Melan-a. Description: Effect on tyrosinase localization in mouse Melan-a cells assessed as endoplasmic reticulum trapping at 60 uM incubated for 3 days by confocal immunofluorescence microscopy. The format is functional, cell-based.
Test [8] has as its system Melan-a. Nature of the test: Effect on tyrosinase localization in mouse Melan-a cells assessed as lysosome at 60 uM incubated for 3 days by confocal immunofluorescence microscopy. The format is functional, cell-based.
The test system of test [9] is Melan-a. Nature of the test: Effect on tyrosinase maturation in mouse Melan-a cells assessed as immature Endo H-sensitive form measured in endoplasmic reticulum using forskolin-supplemented medium at 60 to 120 uM by Western blotting analysis. The format is functional, cell-based. A general note: In western blotting, separated proteins are transferred to a membrane and probed.

Test [10] in a line: Suppression of MITF expression in mouse Melan-a cells using forskolin-supplemented medium incubated for 1 day by Western blotting analysis. The format is functional, cell-based.
Test [11] is described as follows: Suppression of TRP1 expression in mouse Melan-a cells using forskolin-supplemented medium at 60 to 120 uM incubated for 1 day by Western blotting analysis. The format is functional, cell-based.
Test [12] has as its system Melan-a. Nature of the test: Suppression of tyrosinase/TRP-1 complex formation in mouse Melan-a cells using forskolin-supplemented medium at 120 uM incubated for 3 days by Western blotting analysis. The format is functional, cell-based.

The Ki is a measure of affinity in units of concentration, obtained from inhibition or displacement. With `Oc1ccc(/C=C/c2cc(O)cc(O)c2)cc1` [RESVERATROL], the Ki on Tyrosinase [1] was determined as 2900 µM.
As for `OC[C@H]1O[C@@H](Oc2c(O)cc(O)cc2/C=C/c2ccc(O)cc2)[C@H](O)[C@@H](O)[C@@H]1O`, the inhibition result in test [2], in [4], in test [5] and in test [10] was “Dose-dependent effect” each time. Besides, the Ki came to 2800 µM on Tyrosinase [1] and 2500 µM at Tyrosinase [3]. Also, the Activity in [6] came to 103%. Further, the outcome with Melan-a [7], in the test with Melan-a [8] and in the test on Melan-a [9] was inactive. Also, the inhibition result in [11] is “inactive”. In addition, in the test on Melan-a [12], the inhibition entry is “Active”.

The record behind these values is ChEMBL document CHEMBL3286214, “Tyrosinase inhibitory activity of a glucosylated hydroxystilbene in mouse melan-a melanocytes” (J Nat Prod, 2014).
